Eight compounds from patent US20240159706A1, “MALDI-MS METHOD, PHOTO-SENSITIVE MALDI MATRIX COMPOSITE AND PHOTO-CAGED MALDI MATRIX COMPOUND FOR USE IN SAID METHOD AND RESPECTIVE USES” (SIRIUS FINE CHEMICALS SICHEM GMBH, priority 2021, published 2024) can be followed below.

Read-outs that look alike come from different tables or passages of the source.

What all share (format): physicochemical
Data set [1] in a line: Additional vacuum stability test, compounds sprayed on ITO slides with porcine brain tissue sections (Example 4a). Conditions: 21 hrs, about 35° C., vacuum up to about 1.4×10^−7 mbar. As for the experimental part:
In a separate experiment, frozen porcine brain tissue was sectioned into 10 μm slices using a Leica CM1950 clinical cryostate (Leica Biosystems, Germany) at a chamber temperature of −15° C. and a head temperature of −10° C. The tissue sections were thaw-mounted onto ITO glass slides and dried for 20 min under vacuum. The ITO glass object slides with tissue sections were then sealed and stored at −80° C. until analysis. Shortly before usage, the slides were taken out from the freezer and thawed at room temperature for 20 min. under vacuum.
Photo-caged MALDI Matrix Compounds of Examples Ex. 1.1 (DMNB-2,5-DHAP), 1.7 (CNB-2,5-DHAP), 1.8 (PMNB-2,5-DHAP) and 1.9 (DMNBC-2,5 DHAP) were dissolved (Ex. 1.1: 2.5 mg/mL in standard solvent according to table 2 above; Ex.: 1.7 and 1.8:2.5 mg/mL in acetonitrile/water 7:3 (v/v)+0.1% trifluoroacetic acid; Ex. 1.9: saturated solution <2.5 mg/mL in acetonitrile/water 8:2 (v/v)+0.1% trifluoroacetic acid) and sprayed onto the ITO slides as prepared above, including to the porcine brain tissue sections thereof (see above) with a HTX M5 sprayer (HTX Technologies, USA), spray parameters: temperature of spray nozzle/tray: 50° C./25° C., Spray nozzle velocity 1000 mm/min; nozzle height: 40 mm. Twenty passes with a flow rate of 60 μL/min and a pressure of 10 psi were sprayed. Optical images of the sprayed slides were then recorded before incubation and after incubation in an ultrafleXtreme™ MALDI TOF mass spectrometer (see above) for 21 hrs at about 35° C. and a vacuum of up to about 1.4×10^−7 mbar.

Data set [2] is described as follows: Dissolution of matrix compounds when preparing test solutions (Example 4a). The protocol: Conventional MALDI matrix compounds 2,5-dihydroxybenzoic acid (2,5-DHB); 1,5-diaminonaphthalene (1,5-DAN); 3-hydroxycoumarin (3-HC); […] (2,5-DHAP); 2-mercaptobenzothiazole (2-MBT) and dithranol, respectively, were dissolved in acetonitrile/water (1:1 v/v) at a concentration of 5 mg/mL. […] 1 μL of each resulting solution was pipetted onto an ITO glass slide. After droplets had dried in the air, a first optical image (Aperio CS2 Scanner, Leica Biosystems, Wetzlar, Germany) of the whole ITO slides at 0 min. was recorded. The slides were then incubated at about 35° C. and a vacuum between about 3.5×10^−6 mbar (t=0 min.) and about 1.4×10^−7 mbar (t=892 min.) in an ultrafleXtreme™ MALDI TOF mass spectrometer (Bruker Daltonics) equipped with a Smartbeam-II Nd:YAG laser (355 nm) for time periods of 18 min., 80 min. and 892 min., respectively. After each time interval, additional optical images were taken of the slides. For 2,5-dihydroxyacetophenone (2,5-DHAP) a similar test was performed with a diluted solution (2.5 mg/mL). […]

Data set [3] in a line: Solubility tests with Photo-caged MALDI Matrix Compounds in solvents/solvent systems. The settings on record: for solubility: thermodynamic from solid, read-out: solubility (completely dissolved at 2.5 mg/mL); for solubility in the solvents or solvent systems under review: overall rating from Table 2, Solvents 1-10. The protocol:
Photo-caged MALDI Matrix Compounds according to the invention were prepared as described in Example 1 above and tested for solubility in different solvents (including solvent systems). The solvents (including solvent systems) used in this Example 2 are listed here below in Table 1:
Around 1 mg of each Photo-caged MALDI Matrix Compound was weighed into an Eppendorf tube using an analytical balance. The calculated amount of selected solvent was added into the tube to generate a solution at a maximal concentration of 2.5 mg/mL. An ultrasonic bath was used for max. 3 min. to accelerate the dissolving process.
The numbers of the compounds used in this Example 2 refer to the example numbers of Example 1 above. In Table 2 below, the mark “X” in a cell means, that the respective compound was completely dissolved in the respective solvent or solvent system in a concentration of 2.5 mg/mL.

Where [4] appears, read: organic solvent or mixture, Solvent 1: Acetonitrile.
[5] abbreviates: organic solvent or mixture, Solvent 2: Acetonitrile/water (v/v 90/10).
Where [6] appears, read: organic solvent or mixture, Solvent 3: Acetonitrile/water (v/v 90/10) + 0.1% trifluoroacetic acid.
[7] abbreviates: organic solvent or mixture, Solvent 4: Acetonitrile/water (v/v 85/15) + 0.1% trifluoroacetic acid.
Setting [8] is: organic solvent or mixture, Solvent 5: Methanol/water (v/v 90/10).
Setting [9] is: Solvent 2: Acetonitrile/water (v/v 90/10).
[10] abbreviates: Solvent 3: Acetonitrile/water (v/v 90/10) + 0.1% trifluoroacetic acid.
Setting [11] is: Solvent 4: Acetonitrile/water (v/v 85/15) + 0.1% trifluoroacetic acid.
Setting [12] is: Solvent 5: Methanol/water (v/v 90/10).
Setting [13] is: Solvent 6: Methanol/water (v/v 90/10) + 0.1% trifluoroacetic acid.
[14] abbreviates: Solvent 7: Methanol/water (v/v 90/10) + 50 mM (final conc.) NH4HCO3.
[15] abbreviates: Solvent 8: Methanol/water (v/v 85/15).
Setting [16] is: Solvent 9: Methanol/water (v/v 85/15) + 0.1% trifluoroacetic acid.
Where [17] appears, read: Solvent 10: Methanol/water (v/v 85/15) + 50 mM (final conc.) NH4HCO3.

Regarding `CC(=O)c1cc(O)ccc1O` [2,5-DHAP, 2,5-dihydroxyacetophenone, reference compound], the “presence on ITO slides / porcine brain tissue sections after incubation under vacuum” value in data set [1] is “completely evaporated”.

As for `Sc1nc2ccccc2s1` [2-MBT, 2-mercaptobenzothiazole, reference compound], the “dissolution at a concentration of 5 mg/mL” value in data set [2] (acetonitrile/water (1:1 v/v), 5 mg/mL) is “not completely dissolved”.

In the case of `COc1cc(CNc2cccc3c(N)cccc23)c([N+](=O)[O-])cc1OC` [Ex. 1.2, N^1-(4,5-dimethoxy-2-nitrobenzyl)naphthalene-1,5-diamine], the solubility in data set [3] (methanol/water (v/v 85/15) + 50 mM NH4HCO3, organic solvent or mixture, Solvent 10: Methanol/water (v/v 85/15) + 50 mM (final conc.) NH4HCO3) was above 2500 µg/mL; in data set [3] (methanol/water (v/v 90/10) + 50 mM NH4HCO3, organic solvent or mixture, Solvent 7: Methanol/water (v/v 90/10) + 50 mM (final conc.) NH4HCO3) it was above 2500 µg/mL; in data set [3] (setting [4]) it was above 2500 µg/mL; in data set [3] (setting [5]) it was above 2500 µg/mL; in data set [3] (setting [6]) it was above 2500 µg/mL; in data set [3] (setting [7]), above 2500 µg/mL. The solubility is above 2500 µg/mL in data set [3] (setting [8]); above 2500 µg/mL in data set [3] (organic solvent or mixture, Solvent 6: Methanol/water (v/v 90/10) + 0.1% trifluoroacetic acid); above 2500 µg/mL in data set [3] (organic solvent or mixture, Solvent 8: Methanol/water (v/v 85/15)); above 2500 µg/mL in data set [3] (organic solvent or mixture, Solvent 9: Methanol/water (v/v 85/15) + 0.1% trifluoroacetic acid). The “solubility in the solvents or solvent systems under review” value (“solubility … under review” below) in data set [3] is recorded as “excellent solubility”.

As for `COc1cc(COc2cc3ccccc3oc2=O)c([N+](=O)[O-])cc1OC` [Ex. 1.3, 3-((4,5-Dimethoxy-2-nitrobenzyl)oxy)-2H-chromen-2-one], the “solubility (completely dissolved at 2.5 mg/mL)” value in data set [3] (setting [9]), in data set [3] (setting [10]), in data set [3] (setting [11]), in data set [3] (setting [12]), in data set [3] (setting [13]) and in data set [3] (setting [14]) was “◯” throughout. Moreover, the “solubility (completely dissolved at 2.5 mg/mL)” value in data set [3] (setting [15]), in data set [3] (setting [16]) and in data set [3] (setting [17]) was “◯” each time. For the same compound, the solubility in data set [3] (setting [4]) was above 2500 µg/mL.

With `COc1cc(COc2cccc(O)c2C(C)=O)c([N+](=O)[O-])cc1OC` [Ex. 1.4, 1-(2-((4,5-Dimethoxy-2-nitrobenzyl)oxy)-6-hydroxyphenyl)ethan-1-one], the “solubility (completely dissolved at 2.5 mg/mL)” value in data set [3] (setting [12]), in data set [3] (setting [13]), in data set [3] (setting [14]), in data set [3] (setting [15]), in data set [3] (setting [16]) and in data set [3] (setting [17]) was “◯” in each case. Also, the solubility in data set [3] (setting [4]), in data set [3] (setting [5]), in data set [3] (setting [6]) and in data set [3] (setting [7]) was above 2500 µg/mL in each case. Further, in data set [3], the “solubility … under review” value is “very good solubility”.

In the case of `COc1cc(CSc2nc3ccccc3s2)c([N+](=O)[O-])cc1OC` [Ex. 1.5, 2-((4,5-Dimethoxy-2-nitrobenzyl)thio)benzo[d]thiazole], the “solubility (completely dissolved at 2.5 mg/mL)” value in data set [3] (setting [13]), in data set [3] (setting [14]), in data set [3] (setting [15]), in data set [3] (setting [16]) and in data set [3] (setting [17]) was “◯” throughout. The solubility in data set [3] (setting [4]), in data set [3] (setting [5]), in data set [3] (setting [6]), in data set [3] (setting [7]) and in data set [3] (setting [8]) was above 2500 µg/mL each time. The “solubility … under review” value in data set [3] was “very good solubility”.

For `COc1cc(COc2cccc3c2C(=O)c2c(O)cccc2C3)c([N+](=O)[O-])cc1OC` [Ex. 1.6, 1-((4,5-Dimethoxy-2-nitrobenzyl)oxy)-8-hydroxyanthracen-9(10H)-one], the “solubility (completely dissolved at 2.5 mg/mL)” value in data set [3] (Solvent 1: Acetonitrile), in data set [3] (setting [9]), in data set [3] (setting [10]), in data set [3] (setting [11]), in data set [3] (setting [12]) and in data set [3] (setting [13]) was “◯” in each case. In addition, the “solubility (completely dissolved at 2.5 mg/mL)” value in data set [3] (setting [14]), in data set [3] (setting [15]), in data set [3] (setting [16]) and in data set [3] (setting [17]) was “◯” each time.

In the case of `COc1cc(COC(=O)Oc2ccc(O)c(C(C)=O)c2)c([N+](=O)[O-])cc1OC` [Ex. 1.9, 3-Acetyl-4-hydroxyphenyl (4,5-dimethoxy-2-nitrobenzyl) carbonate], the “concentration of saturated solution” value in data set [2] (acetonitrile/water 8:2 (v/v)+0.1% trifluoroacetic acid) is below 2.5 mg/mL. Moreover, the “presence on ITO slides / porcine brain tissue sections after incubation under vacuum” value in data set [1] is on record as “best results”.
